Reference: publication PMC9573667, “Efficient Oxidative Dearomatisations of Substituted Phenols Using Hypervalent Iodine (III) Reagents and Antiprotozoal Evaluation of the Resulting Cyclohexadienones against T. b. rhodesiense and P. falciparum Strain NF54” (Molecules, 2022)
Like-named read-outs stand apart in the source and are kept apart here.

Columns and labels:
[1] = system: L6 cells rat skeletal myoblasts; assay: Cytotoxicity against L6 cells (Alamar blue); format: cell-based; settings: read-out: Cyt. L6 IC50
Procedure: The antiprotozoal activity of 5a,b has already been described in the literature. […] Cytotoxicity was determined using L6 rat skeletal myoblasts to calculate a selectivity index for each parasite (SI = IC50(L6)/IC50(parasite)).
Cytotoxicity was determined in vitro against rat L6 myoblasts as described; details are listed in the supplement. […]
1.3 Cytotoxicity against L6 cells
Assays were performed in 96-well microtiter plates, each well containing 100 μL of RPMI 1640 medium supplemented with 1% L-glutamine (200 mM) and 10% foetal bovine serum, and 4000 L6 cells (a […] cell line derived from rat skeletal myoblasts). Serial drug dilutions of 11 threefold dilution steps covering a range from 100 to 0.002 μg/mL were prepared. After 72 h of incubation, the plates were inspected under an inverted microscope to assure growth of the controls and sterile conditions. 10 μL of Alamar Blue solution was then added to each well and the plates incubated for another 2 h. Then the plates were read with a Spectramax Gemini XS microplate fluorometer (Molecular Devices Cooperation, Sunnyvale, CA, USA) using an excitation wavelength of 536 nm and an emission wavelength of 588 nm.
The IC50 values were calculated by linear regression from the sigmoidal dose inhibition curves using the microplate reader software Softmax Pro (Molecular Devices Cooperation, Sunnyvale, CA, USA).
Podophyllotoxin (Sigma P4405) was used as control.

[2] = system: P. falciparum, strain NF54, erythrocytic stages; assay: In vitro growth inhibition assay of Plasmodium falciparum NF54 ([3H]-hypoxanthine incorporation); format: cell-based; settings: for IC50: Plasmodium falciparum; for ligand efficiency lipophilic price (LELP), P. falciparum / lipophilic ligand efficiency (LLE), P. falciparum: based on IC50 values in nmol/L, DataWarrior 5.5.0
Procedure: Antimalarial activity was determined in vitro against the erythrocytic stages of P. falciparum using the drug-sensitive strain NF54. Parasite proliferation was assessed by incorporation of [^3H]-hypoxanthine using a modified version of [75]; for details, please refer to the Supplementary Materials. The positive control was chloroquine.
1. Experimental of biological testing
1.1 In vitro growth inhibition assay of Plasmodium falciparum NF54
Plasmodium falciparum, strain NF54, erythrocytic stages, and the standard drug, chloroquine, were used for the assay. The parasite cultures incubated in RPMI 1640 medium with 5% AlbuMAXTM (without hypoxanthine) were exposed to serial drug dilutions in microtiter plates. After 48 h of incubation at 37 °C in a reduced oxygen atmosphere, 0.5 μCi [3H]-hypoxanthine was added to each well of the plate. Cultures were incubated for a further 24 h before they were harvested onto glass-fiber filters and washed with distilled water. The radioactivity was counted using a BetaplateTM liquid scintillation […]
counter (Wallac, Zurich). […]
concentration and expressed as percentage of the untreated controls. IC50 values were calculated from the sigmoidal inhibition curves using Microsoft Excel. Chloroquine was used as control. […]

[3] = system: T. brucei rhodesiense, strain STIB900 trypomastigote forms; assay: In vitro growth inhibition assay of Trypanosoma brucei rhodesiense STIB900 (Alamar blue); format: cell-based; settings: for IC50: Trypanosoma brucei; for ligand efficiency lipophilic price (LELP), T. brucei rhodesiense / lipophilic ligand efficiency (LLE), T. brucei rhodesiense: based on IC50 values in nmol/L, DataWarrior 5.5.0
Procedure: Trypanocidal activity was determined in vitro against axenically grown bloodstream-forms of T. b. rhodesiense STIB900 as described in Refs. [76, 77] and detailed in the Supplementary Materials. Parasite proliferation was assessed via fluorescence of the redox-sensitive dye resazurin (Alamar blue). The drug melarsoprol was used as the positive control. […]
1.2 In vitro growth inhibition assay of Trypanosoma brucei rhodesiense
Trypanosoma brucei rhodesiense, STIB 900 strain, and the standard drug, melarsoprol, were used for the assay. Minimum Essential Medium (50 μL) supplemented with 25 mM HEPES, 1g/L additional glucose, 1% MEM non-essential amino acids (100x), 0.2 mM 2-mercaptoethanol, 1 mM Na-pyruvate and 15% heat-inactivated horse serum was added to each well of a 96-well microtiter plate. Serial drug dilutions of 11 three-fold dilution steps covering a range from 100 to 0.002 μg/mL were prepared. Then […]
mL double-distilled water) was then added to each well and incubation continued for a further 2–4 h.
Then, the plates were read with a Spectramax Gemini XS microplate fluorometer (Molecular Devices Cooperation, Sunnyvale, CA, USA) using an excitation wavelength of 536 nm and an emission wavelength of 588 nm. The IC50 values were calculated from the sigmoidal inhibition curves using the microplate reader software Softmax Pro (Molecular Devices Cooperation, Sunnyvale, CA, USA).
Melarsoprol was used as control. […]

[4] = L6 rat skeletal myoblasts, 72 h
[5] = strain STIB900 trypomastigote forms, means of two to three measurements, SD <5%, read-out: T. b. rhod. IC50
[6] = NF54, strain NF54, erythrocytic stages, means of two to three measurements, SD <5%, read-out: P. falc. IC50

Compound | IC50 ([1]; Rattus norvegicus, L6, 72 h) [nM] | IC50 ([2]; NF54, read-out: P. falc. IC50) [nM] | IC50 [1, 4] [nM] | IC50 [3, 5] [nM] | ligand efficiency lipophilic price (LELP), T. brucei rhodesiense [3] | lipophilic ligand efficiency (LLE), T. brucei rhodesiense [3] | IC50 [2, 6] [nM] | ligand efficiency lipophilic price (LELP), P. falciparum [2] | lipophilic ligand efficiency (LLE), P. falciparum [2] | melting point [°C] | IC50 ([3]; read-out: T. b. rhod. IC50) [nM] | IC50 ([3]; read-out: T. brucei rhodesiense IC50) [nM] | IC50 ([3]; STIB900, stated in text in nM, read-out: T. brucei rhodesiense IC50) [nM]
CCN(CC)CCCC(C)Nc1ccnc2cc(Cl)ccc12 (stereo not drawn) [Chl., chloroquine, reference compound] | 91100 | 2 |  |  |  |  |  |  |  |  |  |  | 
COC(=O)CC1(O)C=CC(=O)C=C1 [Compound 4a, Methyl 2-(1-hydroxy-4-oxocyclohexa-2,5-dien-1-yl)acetate] |  |  | 391 | 588 | -0.2362 | 6.3859 | 969 | -0.2447 | 6.1690 |  |  |  | 
COC(=O)CC1(O)C=CC(=O)C(F)=C1 (stereo not drawn) [Compound 4b, Methyl 2-(3-fluoro-1-hydroxy-4-oxocyclohexa-2,5-dien-1-yl)acetate] |  |  | 657 | 78 |  | 7.0619 | 644 | 0.07582 | 6.1451 |  |  |  | 
COC(=O)CC1(O)C=CC(=O)C(Cl)=C1 (stereo not drawn) [Compound 4c, Methyl 2-(3-chloro-1-hydroxy-4-oxocyclohexa-2,5-dien-1-yl)acetate] |  |  | 440 | 47 | 0.3676 | 7.0639 | 837 | 0.4433 | 5.8133 |  |  |  | 
COC(=O)CC1(O)C=CC(=O)C(Br)=C1 (stereo not drawn) [Compound 4d, Methyl 2-(3-bromo-1-hydroxy-4-oxocyclohexa-2,5-dien-1-yl)acetate] |  |  | 214 | 42 | 0.5464 | 6.9818 | 301 | 0.6181 | 6.1264 |  |  |  | 
COC(=O)CC1(O)C=C(Cl)C(=O)C(Cl)=C1 [Compound 4e, Methyl 2-(3,5-dichloro-1-hydroxy-4-oxocyclohexa-2,5-dien-1-yl)acetate] |  |  | 116 | 10 | 0.9339 | 7.3167 | 245 | 1.1301 | 5.9275 |  |  |  | 
COC(=O)CC1(O)C=C(Br)C(=O)C(Br)=C1 [Compound 4f, Methyl 2-(3,5-dibromo-1-hydroxy-4-oxocyclohexa-2,5-dien-1-yl)acetate] |  |  | 199 | 24 | 1.3564 | 6.6745 | 391 | 1.613 | 5.4625 |  |  |  | 
COC(=O)CCC1(O)C=CC(=O)C=C1 [Compound 4g, Methyl 3-(1-hydroxy-4-oxocyclohexa-2,5-dien-1-yl)propanoate] |  |  | > 100000 | 4870 | 0.5746 | 5.0134 |  | 0.5999 | 4.7892 | 49 to 50 |  |  | 
O=C1C=CC2(C=C1)CCC(=O)O2 [Compound 4h, 1-Oxaspiro [4.5]deca-6,9-diene-2,8-dione] |  |  | 425 | 4890 | 0.1253 | 5.2346 |  | 0.1197 | 5.4846 | 105 to 106 |  |  | 
COC(=O)/C=C/C1(O)C=CC(=O)C=C1 [Compound 4i, Methyl (2E)-3-(1-hydroxy-4-oxocyclohexa-2,5-dien-1-yl)prop-2-enoate] |  |  | 569 | 108 | 0.0687 |  | 657 | 0.07742 | 6.1355 |  |  |  | 
O=C1C=C(Cc2ccccc2)C(=O)c2ccccc21 [Compound 5c, 2-Benzyl-1,4-dihydronaphthalene-1,4-dione] | 22000 | 917 |  |  |  |  |  |  |  |  | 80 | < 100 | 
O=C1C=CC(=O)c2cc(F)ccc21 [Compound 5d, 6-Fluoro-1,4-dihydronaphthalene-1,4-dione] |  |  | 2170 | 93 | 2.0757 | 5.4913 | 677 | 2.3657 | 4.6292 | 119 to 120 |  |  | < 100
O=C1C=CC(=O)c2cc(F)c(F)cc21 [Compound 5e, 6,7-Difluoro-1,4-dihydronaphthalene-1,4-dione] |  |  | 4800 | 166 | 2.470 | 5.1389 | 689 | 2.7178 | 4.5208 | 128 to 130 |  |  | 
Nc1nc(N)nc(Nc2ccc([As]3SCC(CO)S3)cc2)n1 (stereo not drawn) [Mel., melarsoprol, reference compound] | 24200 |  |  |  |  |  |  |  |  |  | 4 |  | 
COc1cc([C@@H]2c3cc4c(cc3[C@H](O)[C@H]3COC(=O)[C@H]23)OCO4)cc(OC)c1OC [Pod., podophyllotoxin, reference compound] | 7 |  |  |  |  |  |  |  |  |  |  |  | 
